Assay results: US6107104A, “Modulators of anchoring protein function” (ICOS Corporation, priority 1996, dated 2000)
pIC50: −log10 of the molar value. Ends that are not written are not given here.

Experiments:
RII = assay: ELISA and modified ELISA, AKAP 79 binding to immobilized RII
Description: (§1) Specifically, in the first method, recombinant CaN A, expressed as described above, was added to wells of Immulon plates (Dynatech) in a 35 mM sodium bicarbonate/15 mM sodium carbonate buffer, pH 9.6. Proteins bound to the surface of the wells by plastic/protein interaction. As a positive control, RII, and a negative control, bovine serum albumin (BSA) were separately and similarly captured in individual wells and assayed in this method. Nonspecific sites in the wells were blocked with a buffer containing 2.5% milk in 50 mM sodium citrate and 145 mM sodium chloride. Full length TRX-AKAP 79 was added in a final volume of 100 μl and after up to 2 hours incubation, free and non-specific proteins were removed with several washes with PBS/0.5% Tween 20. A mouse anti-AKAP 79 monoclonal antibody, generated against recombinant AKAP 79, was added to each well, followed by addition of a horse radish peroxidase (HRP)-conjugated goat anti-mouse antibody. HRP substrate tetramethylbenzidine (TMB) was added and absorbance at 450 nm determined using a Dynatech 96 well plate reader.
(§2) In the modified ELISA, standard ELISA techniques were employed except that HRP-conjugated streptavidin was used to detect bound biotinylated AKAP 79 instead of an anti-AKAP 79 monoclonal antibody. Briefly, after incubation of immobilized CaN A with biotinylated AKAP 79, HRP-conjugated streptavidin was added for 30 minutes. Unbound protein was removed with multiple washes of PBS/0.05% Tween 20. Bound streptavidin was detected with HRP substrate TMB and absorbance measured at 450 nm using a Dynatech 96 well plate reader. As in the ELISA described above, RII was immobilized and assayed as a positive control, and BSA as a negative control.

CaN A = target: T1, CaN A (Rattus norvegicus, UniProt P63329); assay: ELISA and modified ELISA, AKAP 79 binding to immobilized CaN A
T1 construct: the deletion mutant form of CaN A is used in the assays described above in place of full length CaN A; made in house; host or cells: Sf9 cells (baculovirus); construct from Vollum Institute
Description: Two different capture methods were used. In one method, CaN A was first captured on plates by passive coating, AKAP 79 or biotinylated AKAP 79 was added, and complex formation detected by either ELISA or by streptavidin-HRP. In another method, rabbit anti-mouse antibodies were first captured on plates, mouse anti-TRX antibodies added and captured, and TRX-AKAP 79 added and captured. This method was similar to the capture method used for AKAP 79/^3 H-RII SPA. Biotinylated CaN A was then added, and the complex detected by streptavidin-HRP.
as §1
as §2, with “Unbound protein was removed with multiple washes of PBS/0.05% Tween 20.” left out, “As in the ELISA described above, RII was immobilized and assayed as a positive control, and BSA as a negative control.” left out

AKAP 79/RII binding = assay: Scintillation proximity assay of TRX-AKAP 79/3H-RII binding; details: read-out: IC50 of inhibition of AKAP 79/RII binding
Source text: Initially, a thioredoxin TRX-AKAP 79 fusion protein expression plasmid was constructed. See, generally, LaVallie, et al., BIO/TECHNOLOGY 11:187-193 (1993). Briefly, a XhaI/HindIII thioredoxin fragment was subcloned into pUC 19 containing a lac Z gene and a tacZ promoter. The resulting plasmid was designated TRX F/S pUC19. In order to insert an AKAP 79 encoding sequence into TRX F/S pUC19, an NcoI site was created with an oligonucleotide (SEQ ID NO:32) having terminal SpeI and HindIII sequences. Following SpeI/HindIII digestion, the oligonucleotide was inserted into the vector and an NcoI/XhoI fragment encoding AKAP 79 was ligated in frame with the thioredoxin gene. The fusion protein was expressed in E. coli and immobilized on 96-well ScintiStrip plates (Wallac, Turbu, Finland) which contained a scintillator embedded in the solid support. […] When ^3 H-RII bound to AKAP 79, the label was brought sufficiently close to the support-embedded scintillator, resulting in emission detected in a MicroBeta scintillation counter.
The scintillation proximity assay (SPA) screening protocol described in Example 8 was employed to determine the ability of various chemicals to inhibit binding between AKAP 79 and ^3 H-RII. […] Percent binding was determined by the measuring the amount of radioactivity in each well compared to the amount of radioactivity in wells wherein only AKAP 79 and ^3 H-RII were introduced.

PKC = PKC activity assay with EGF receptor peptide substrate; format: biochemical
Description: In order to asses the ability of these peptides to modulate PKC activity, the following assay was performed in the presence and absence of AKAP 79 peptide fragments. PKC [50 nM dissolved in 50 mM tris-HCl (pH 7.4), 5 mM MgCl2 1.2 mM CaCl2, 1 mM DTT, 1 mM EGTA and 100 μg/ml PS] was incubated with EGF receptor peptide substrate (5 μM) at 30° C. for five minutes. Phosphorylation reaction was initiated by addition of 100 μM ^32 P-ATP (500 cpm/pmol) and the reaction allowed to proceed for ten minutes at 30° C. Aliquots of reaction mixture were removed and spotted into P81 filter paper and the reaction terminated by washing the filter paper with excess 75 mM phosphoric acid (three washes for three minutes each). After a final wash in ethanol, the p81 filters were dried and radioactivity was measured by liquid scintillation counting.

PKC/AKAP 79 interaction = assay: PKC overlay assay; format: binding, rabbit
Description: In order to determine if the 75 kDa protein identified may be the bovine homolog of AKAP 79, the PKC overlay assay was used to probe AKAP 79 and related fragments. Briefly, proteins were separated by SDS-polyacrylamide electrophoresis (SDS-PAGE) and blotted to nitrocellulose following standard protocols. Samples were blocked in Blotto [1 mg/ml bovine serum albumin (BSA), 5% dry milk in Tris-buffered saline (TBS)] and incubated for one hour at room temperature in assay buffer [TBS containing 1 mg/ml BSA, 1.2 mM calcium, 1 mM EGTA, 20 μg/ml phosphatidylserine (PS), 2 μg/ml leupeptin, 2 μg/ml pepstatin and 3 μg/ml of partially purified rabbit brain PKC]. Bound PKC was detected with monoclonal antibody M7, which recognizes both PKCα and β, following standard chemiluminescent detection methods.

CaN = target: T2, CaN (Rattus norvegicus, UniProt P63329); assay: CaN phosphatase activity toward 32P RII peptide substrate; format: biochemical; details: Ca2+/calmodulin dependent CaN 30 nM, 32P RII peptide substrate
T2 construct: made in house; host or cells: Sf9 cells (baculovirus)
Description: (§3) To determine whether AKAP 79 peptide binding inhibits CaN activity, CaN phosphatase activity was assayed in the presence of recombinant AKAP 79. Briefly, recombinant AKAP 79 was expressed in E. coli as described in Carr et al., J. Biol. Chem., 267:16816-16823 (1992), incorporated herein by reference. CaN and the constitutively active truncation mutant CaN420 (a truncated, Ca^2+ /calmodulin independent constitutively active form of CaN (Perrino et al., J. Biol. Chem., in press)) were expressed in Sf9 cells and purified on calmodulin-Sepharose as described in Perrino et al., J. Biol Chem., 267:15965-15969 (1992), incorporated herein by reference. Phosphatase activity toward ^32 P RII peptide substrate was measured as described in Perrino et al., supra. CaN (30 nM), calmodulin (100 nM) and ^32 P RII peptide (22 μM) were incubated with AKAP 79 protein and AKAP 79 peptide (SEQ ID NO:1-amino acids 81-102) over the range of concentrations indicated in FIG. 1B. Calmodulin was omitted from CaN420 assays. ^32 P released from the substrate was measured in triplicate samples in three separate experiments by scintillation counting. The inhibition constant (Ki) of recombinant AKAP 79 for CaN was determined by linear regression analysis of data. Ki values for AKAP 79 peptide were estimated by determining the IC50 using a fixed substrate concentration at Km (42 μM).

CaN420 = target: T3, CaN420 (Rattus norvegicus, UniProt P63329); assay: CaN420 phosphatase activity toward 32P RII peptide substrate; format: biochemical; details: calmodulin omitted
T3 construct: a truncated, Ca^2+ /calmodulin independent constitutively active form of CaN; made in house; host or cells: Sf9 cells (baculovirus)
Description: as §3

[1] = system: IL-2 transcription in Jurkat T cell line (NFATZ); assay: NFATZ Jurkat IL-2 promoter lacZ β-gal FACS assay; format: cell-based
Source text: IL- 2 transcription was studied following activation with PMA and ionomycin. These two agents are known respectively to potentiate protein kinase C and calcium second messenger responses (including activation of CaN). Protein kinase C activates the Ras-Raf-1-Mek-MAP Kinase pathway that participates in induction of the nuclear component of NFAT. The increased calcium concentration activates calcineurin which, in turn, activates the cytoplasmic component of NFAT and allows translocation to the nucleus.
Each of the peptides was myristilated as described in Eichholtz et al., J. Biol. Chem., 268:1982-1986 (1993).
Incubation with forskolin/IBMX elevates intracellular cAMP concentrations (FIG. 4), thereby activating PKA. Finally, phorbol 12-myristate 13-acetate (PMA) (10 ng/ml) and ionomycin (2 μM) were added and incubations continued for 4 hr. Controls were incubated with PMA/ionomycin alone or forskolin/IBMX and PMA/ionomycin under conditions as described above. During the last 20 min of the PMA/ionomycin incubation, chloroquine (300 μM) was added to inhibit endogenous lysosomal β-gal activity. The cells were spun out and resuspended in 50 μl of culture medium to which 50 μl of fluorescein di-β-D-galactopyranoside (FDG) was added (0.1 mM final concentration; Molecular Probes). […] The lacZ β-gal activity was measured by flow cytometry configured for fluorescein analysis.

“AKAP 79/M108: biotinylated AKAP 79 truncation, first 108 amino terminal residues deleted” was tested, and the “recognition of immobilized RII” value (RII) was “specifically recognized”.

In the case of “AKAP 79/Met247: biotinylated AKAP 79 truncation, first 247 amino terminal amino acids deleted”, the “recognition of immobilized RII” value (RII) was “specifically recognized” and the “binding to immobilized CaN A” value (CaN A) was “no specific binding”.

For “unlabeled RII: unlabeled RII regulatory subunit of PKA, reference inhibitor”, the pIC50 (AKAP 79/RII binding) was 9.00.

In the case of “peptide containing residues 31-52: synthetic peptide of residues 31-52 of AKAP 79 (KASMLCFKRRKKAAKALKPKAG; UniProt P24588 31-52, looked up, fragment)”, the “effect of incubation with CaM on inhibition of PKC” value (PKC; CaM 15 μM, excess Ca2+) was “prevented inhibition”, the “type of inhibition of PKC activity” value (PKC; EGF receptor peptide as substrate) was “mixed inhibition” and the pIC50 (PKC; read-out: IC50 of inhibition of PKC activity) was 5.70. For the same substance, the “block of PKC/AKAP 79 interaction” value (PKC/AKAP 79 interaction) was “blocked”.

In the case of “Ht31 peptide: Ht31 peptide (SEQ ID NO:4), blocks anchoring protein binding to RII (DLIEEAAVSRIVDAVIEEVKAAGA) [reference compound]”, the “inhibition of full-length CaN phosphatase activity” value (CaN) was “not an inhibitor” and the pIC50 (AKAP 79/RII binding) was 7.30.

For “AKAP 79: recombinant anchoring protein AKAP 79 expressed in E. coli”, the “inhibition of CaN420 phosphatase activity” value (CaN420) was “non-competitive manner”, the “inhibition of full-length CaN phosphatase activity” value (CaN) was “non-competitive manner” and the “binding to immobilized CaN A” value (CaN A) was “bound”.

“Asp-Leu-Ile-Glu-Glu-Ala-Ala-Ser-Arg-Ile-Val-Asp-Ala-Val-Ile-Glu-Gln-Val-Lys-Ala-Ala-Gly-Ala-Tyr (DLIEEAASRIVDAVIEQVKAAGAY; also: myristoylated, place not given here) [myristilated Ht31 peptide, amino acids 493-515 of the full length Ht31 protein, myristilated]” was tested, and the “reversal of forskolin/IBMX blockade of PMA/ionomycin induced β-gal activity” value ([1]; 100 μM myristilated peptide) was “completely reversed”.

In the case of “AKAP 79/Met159: biotinylated AKAP 79 truncation, first 159 amino terminal amino acids deleted”, the “recognition of immobilized RII” value (RII) was “specifically recognized” and the “binding to immobilized CaN A” value (CaN A) was “no specific binding”.

For “myristilated AKAP 75 peptide: myristilated peptide of amino acids 81-108 of AKAP 75 (SEQ ID NO:8) (SIKRLVTRRKRSESSKQQKPFKAKLQSE; also: myristoylated, place not given here)”, the “reduction of PMA/ionomycin induced β-gal activity” value ([1]; 10 μM in the medium) was 40-50%.
